The values that follow come from US11370769B2, “TRPC5 inhibitors and methods of using same” (BOARD OF REGENTS OF THE UNIVERSITY OF NEBRASKA, priority 2017, dated 2022).

The target of experiment [1] is T1, TRPC5 (Homo sapiens, UniProt Q9UL62).
T1 construct: expressed in transfected cells; host or cells: HEK293
T1 sequence (Q9UL62 1-973): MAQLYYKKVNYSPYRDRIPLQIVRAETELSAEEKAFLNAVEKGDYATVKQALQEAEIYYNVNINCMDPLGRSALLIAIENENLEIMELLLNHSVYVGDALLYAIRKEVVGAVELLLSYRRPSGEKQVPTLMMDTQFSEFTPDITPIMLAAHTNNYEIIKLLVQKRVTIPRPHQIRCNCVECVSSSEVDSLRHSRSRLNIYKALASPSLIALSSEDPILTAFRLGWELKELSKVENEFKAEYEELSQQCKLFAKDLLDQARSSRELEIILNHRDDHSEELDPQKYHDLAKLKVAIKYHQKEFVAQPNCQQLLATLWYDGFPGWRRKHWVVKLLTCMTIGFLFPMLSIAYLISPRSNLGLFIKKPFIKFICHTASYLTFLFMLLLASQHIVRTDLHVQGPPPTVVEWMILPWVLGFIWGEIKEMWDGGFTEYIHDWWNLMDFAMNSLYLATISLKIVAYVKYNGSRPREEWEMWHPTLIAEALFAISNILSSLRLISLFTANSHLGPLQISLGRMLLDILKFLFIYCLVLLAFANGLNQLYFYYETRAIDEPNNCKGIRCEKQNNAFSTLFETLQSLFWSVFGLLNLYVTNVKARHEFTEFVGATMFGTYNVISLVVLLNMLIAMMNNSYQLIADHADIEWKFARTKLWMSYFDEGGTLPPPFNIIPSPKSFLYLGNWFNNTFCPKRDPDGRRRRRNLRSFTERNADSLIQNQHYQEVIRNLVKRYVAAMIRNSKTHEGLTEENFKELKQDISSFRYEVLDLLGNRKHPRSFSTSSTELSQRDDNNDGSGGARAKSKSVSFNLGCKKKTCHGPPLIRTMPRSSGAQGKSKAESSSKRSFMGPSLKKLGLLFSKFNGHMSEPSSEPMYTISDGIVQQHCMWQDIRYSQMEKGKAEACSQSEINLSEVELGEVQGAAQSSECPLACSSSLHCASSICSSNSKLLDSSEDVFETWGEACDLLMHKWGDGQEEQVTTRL
As to the kind of experiment: Syncropath % inhibition TRPC5. Type of experiment: cell-based. Conditions: read-out: Syncropath % inhibition TRPC5 @3 μM; heading: Syncropath % inhibition TRPC5 @3.

For experiment [2], the system named is podocytes. As to the kind of experiment: ROS assay in wild-type podocytes treated with AngII. The experiment is classed as cell-based, mouse. To be noted: WT podocytes, AngII 10 μM, 30 μM compound, 3 hours. The method, then: (§1) Podocyte culture and viral transduction: Immortalized mouse podocytes were cultured as previously described (10, 11). Podocyte viral transduction was performed using lentivirus as previously described (10, 11). Briefly, lentivirus production was carried out in HEK293T cells at 60% confluence, and viral particles were collected two days after transfection and purified by centrifugation at 1,000 rcf for 5 min. Purified lentivirus was frozen at −80° C. until further use. Podocytes were transduced with lentivirus after 7 days of differentiation, and assays were performed 5 days after viral transduction.
ROS and cell viability assays: For ROS experiment in FIG. 4A, mature podocytes were cultured as previously described. Cells were incubated with CellRox Deep Red reagent (ThermoFisher) for 30 min at 37° C. Then cells were treated with DMSO, 10 μM angiotensin II, 10 μM angiotensin II with 30 μM AC1903, or 10 μM angiotensin II with 30 μM N-acetyl-L-cysteine (NAC) for 3 hours at 37° C. Cells were washed with PBS twice and fluorescence images were observed using Olympus IX71 microscopy. Fluorescence intensities were then analyzed using ImageJ software.

The subject of experiment [3] is caAT1R podocytes. Briefly: ROS assay in caAT1R expressing podocytes. Type of experiment: cell-based, mouse. Conditions: 30 μM ML204, 30 μM AC1903 or 50 μM NSC23677 for 36 hours. The method, then:
as §1
(§2) For experiments in FIG. 4B/C, pCDNA3.1 AT1AR-Δ324 (rat AT1R NM_030985.4) containing HA tag (Plasmid #45635, Addgene) underwent site directed mutagenesis (Agilent) to generate the N111S substitution. For FIG. 4B, differentiated podocytes were transduced with the AT1A-N111S/Δ324 construct in six-well plates. Six days after viral transduction, cells were treated with either vehicle, 30 μM ML204, 30 μM AC1903 or 50 μM NSC23677 for 36 hours. Intracellular production of ROS was measured using a cell-permeable fluorescent dye, 5-(and-6)-chloromethyl-2′,7′-dichlorodihydrofluorescein diacetate, acetyl ester (CM-H2DCFDA, Molecular Probes). Cells were incubated with 5 μM CM-H2DCFDA at 37° C. for 45 min in Hanks' balanced salt solution (HBSS). Cells were then collected, resuspended in HBSS, stained with propidium iodide and the fluorescence intensity was assessed by flow cytometry using MACSQuant Analyzer (Miltenyi Biotec, Bergisch Gladbach, Germany). Living cells, which were PI negative, were selected by FACS gating and the fluorescence of CM-H2DCFDA was recorded on the FL-1 channel (525 nm). For FIG. 4C, differentiated podocytes were transduced with the AT1A-N111S/Δ324 construct in 96 well plates. Six days after transduction, the cells were treated with either vehicle, 30 μM ML204, 30 μM AC1903 or 50 μM NSC23677 for 36 hours. […]

In experiment [4] the test system is caAT1R podocytes. Briefly: Cell viability assay in podocytes expressing caAT1R. The experiment is classed as cell-based, mouse. Conditions: 30 μM ML204, 30 μM AC1903 or 50 μM NSC23677 for 36 hours. The procedure: as §1, §2

With `Fc1ccc(Cc2c(NCc3ccco3)nc3ccccn23)cc1` [Compound 5, 3-(4-fluorobenzyl)-N-(furan-2-ylmethyl)imidazo[1,2-a]pyridin-2-amine], the inhibition at 3 µM in experiment [1] turned out to be 88.7%.
Regarding `c1ccc(Cc2c(N3CCCC3)nc3ccccn23)cc1` [Compound 7, 3-benzyl-2-(pyrrolidin-1-yl)imidazo[1,2-a]pyridine], the inhibition at 3 µM in experiment [1] is 33.4%.
Turning to `CC(=O)N[C@@H](CS)C(=O)O` [NAC, N-acetyl-L-cysteine, reference compound], in experiment [2], the “AngII-induced ROS” value is “rescued podocytes from AngII-induced ROS”.
With `CCN(CC)CCSc1c2ccc(Cl)cc2nc2ccc(OC)cc12.Cl` [NSC23677], in experiment [3], the “caAT1R-induced ROS generation” value is reported as “blocked caAT1R-induced ROS generation”. Further, the “podocyte cell death on caAT1R expression” value in experiment [4] is “protected from cell death”.
